Results published in patent publication US11673866B2, “Estrogen receptor beta ligands for the prevention and treatment of multiple sclerosis (MS) and other demyelinating, inflammatory and neurodegenerative diseases” (The Board of Trustees of the University of Illinois, priority 2018, dated 2023).
“Also recorded” adds a separate entry of the source.

Tests used:
[1] = test system: corpus callosum mature OLs (CC1) and MBP; test: CC1 mature OLs and MBP immunoreactivity in callosal white matter tracts of EAE mice; format: in vivo, mouse; parameters: key to Myelination: OLs / Myelination: MBP: ‘+’ indicate marker was significantly (p ≤ 0.05) increased in treatment group relative to vehicle; ‘−’ indicates marker was significantly (p ≤ 0.05) decreased in treatment group relative to vehicle; ○: ‘o’ indicate marker did not change relative to vehicle; conditions: vs vehicle; for CC1+ mature OL numbers, corpus callosum / MBP+ staining, corpus callosum: therapeutic treatment (postEAE)
Excerpt: Immunohistochemistry: Before histological staining, 40-μm free floating sections were thoroughly washed with PBS to remove residual sodium azide (Crawford et al., 2010). Sections were permeabilized with 0.3% Triton X-100 in ix PBS and 15% normal goat serum (NGS). Myelination, gliosis and immune markers were visualized by the following primary antibodies at a concentration of 1:500 unless otherwise noted: chicken anti-myelin basic protein (MBP; polyclonal, EMD Millipore, Darmstadt, Germany), chicken anti-glial fibrillary acidic protein (GFAP; EMD Millipore, Darmstadt), rat anti-cluster of differentiation 45 (CD45; clone 30-F11, BD Biosciences, San Diego, Calif.), mouse anti-ionized calcium-binding adapter molecule 1/allograft inflammatory factor-1 (Iba1/AIF1; clone 20A12.1, EMD Millipore, Darmstadt, Germany), goat anti-CXCL1 (R&D systems; Minneapolis, Minn.) at 1:250 and mouse anti-adenomatous polyposis coli (CC-1; clone CC-1, Genetex, Irvine, Calif.). Secondary staining was performed using polyclonal fluorophore-conjugated antibodies from ThermoFisher Scientific at a concentration of 1:500 unless otherwise specified: goat anti-chicken Alexa Fluor® 555 (AF555), goat anti-rabbit Alexa Fluor® 647 (AF647), donkey anti-chicken IgY Cy3 (EMD Millipore), goat anti-rat IgG AF647, goat anti-rabbit IgG Cy3 (EMD Millipore), goat anti-mouse IgG2b AF647 and rabbit anti-goat AF647. Nuclei were counter stained with 4′,6-Diamidino-2-phenylindole (DAPI, 2 ng/ml; Molecular Probes) for 10 minutes after incubation with secondary antibodies, and sections were mounted on glass slides, allowed to dry, and coverslipped with Fluoromount G mounting medium (Thermo Fisher Scientific) for imaging.
Confocal Microscopy: Thoracic spinal cord dorsal and ventral column sections, as well as CC were imaged using an Olympus BX61 confocal microscope (Olympus America Inc., Center Valley, Pa.) using a 10× and 40× objective. Z-stack projections were compiled using SlideBook 6 software (Intelligent Imaging Innovations, Inc., Denver, Colo.). Immunostaining was quantified using unbiased stereology (Crawford et al., 2010). All images (RGB) were Confocal converted to grayscale, split, and separated by color channel using imageJ version 2.2.0-rc-46/1.50 g (NIH). To avoid experimenter bias, auto-adjustment of brightness and contrast, as well as threshold of staining signal, was carried out by ImageJ. MBP^+, GFAP^+, CD45^+, Iba1^+, CC1^+, and CXCL1^+, staining intensity was measured as percent area of positive immunoreactivity within the region of interest and intensity of signal determined by ImageJ.
To test whether IndCl analogues promote similar gains in mature OL numbers and myelination, callosal white matter tracts were assessed for adenomatous polyposis coli (CC1) and MBP immunoreactivity, respectively. Additionally, ultrastructural analysis of the CC was performed by EM imaging to confirm the integrity of axon myelination.

primary OPCs/OLs = test: Primary OPC/OL differentiation and survival (O4, MOG, DAPI staining); format: cell-based, mouse; conditions: vs vehicle-treated cells, FIG. 12B
Excerpt: FIG. 12A is representative images of primary OPCs/OLs from wells containing differentiating media in the presence of different analogues. OLs were immunostained with an antigen on the surface of oligodendrocyte progenitors, O4, a marker of mature oligodendrocytes, myelin oligodendrocyte glycoprotein, MOG and co-stained with nuclear stain DAPI.
FIG. 12B and FIG. 12C show quantification of the effects of treatment on the number of MOG+ OLs and the number of total cells (DAPI), respectively. […] There were 3 wells/treatment group. n=3 independent experiments were performed. One-Way ANOVA with Dunnett's multiple comparisons test.
The effect on cell differentiation and survival of estrogen receptor § (ERP) ligand IndCl and analogs were investigated. Some estrogen receptor § (ERP) ligands increase primary mouse oligodendrocyte differentiation (FIGS. 12A-12C).

ERβ = ERβ (Homo sapiens, UniProt Q92731); test: Relative binding affinity (RBA) to estrogen receptor beta, radiometric measurement; conditions: for β/α Ratio: ratio of RBA ERβ to RBA ERα; for RBA ERβ: relative value to 100% for E2 by radiometric measurement
[2] = Uterus to body weight ratio in EAE mice; format: in vivo, mouse; conditions: therapeutic treatment (postEAE), female EAE mice
Excerpt: Estrogens increase uterine weight by acting primarily through ERα (Hewitt and Korach, 2003).

[3] = test system: myelin basic protein (MBP) in thoracic spinal cord ventral column; test: MBP immunoreactivity in thoracic ventral column white matter of EAE mice; format: in vivo, mouse; conditions: therapeutic treatment (postEAE), vs vehicle
Experimental: Histological Preparation of Tissues: Mice were deeply anesthetized by isoflurane (Piramal Healthcare) inhalation and perfused transcardially with phosphate buffered saline (PBS), followed by 10% formalin (Thermo Fisher Scientific) to fix tissues. Brains and spinal cords were dissected and post-fixed in 10% formalin (Thermo Fisher Scientific) for 24 hours, then cryoprotected in 30% sucrose (EMD Millipore, Darmstadt, Germany) for 48 hours and embedded in gelatin for sectioning. Embedded brains and spinal cords were then cut into 40-μm coronal sections using an HM525 NX cryostat (Thermo Fisher Scientific). Sections were collected serially and stored in PBS with 1% sodium azide at 4° C. until staining by immunohistochemistry, following a previously described protocol (Crawford et al., 2010; Moore et al., 2014).
Immunohistochemistry: Before histological staining, 40-μm free floating sections were thoroughly washed with PBS to remove residual sodium azide (Crawford et al., 2010). Sections were permeabilized with 0.3% Triton X-100 in ix PBS and 15% normal goat serum (NGS). […]
Confocal Microscopy: Thoracic spinal cord dorsal and ventral column sections, as well as CC were imaged using an Olympus BX61 confocal microscope (Olympus America Inc., Center Valley, Pa.) using a 10× and 40× objective. […] Immunostaining was quantified using unbiased stereology (Crawford et al., 2010). […] MBP^+, GFAP^+, CD45^+, Iba1^+, CC1^+, and CXCL1^+, staining intensity was measured as percent area of positive immunoreactivity within the region of interest and intensity of signal determined by ImageJ.
Treatment with IndCl or other ERβ ligands improves myelination within CNS white tracts of mice with EAE (Khalaj et al., 2013; Kumar et al., 2013; Moore et al., 2014). To establish the pro-myelinating effects of the IndCl analogues tested, thoracic ventral column white matter was assessed for myelin basic protein (MBP) immunoreactivity.

[4] = Post (therapeutic, postEAE) treatment of EAE mice
[5] = Pre (prophylactic, preEAE) E2 treatment of EAE mice

Sequence of ERβ (Q92731 whole entry, species assumed): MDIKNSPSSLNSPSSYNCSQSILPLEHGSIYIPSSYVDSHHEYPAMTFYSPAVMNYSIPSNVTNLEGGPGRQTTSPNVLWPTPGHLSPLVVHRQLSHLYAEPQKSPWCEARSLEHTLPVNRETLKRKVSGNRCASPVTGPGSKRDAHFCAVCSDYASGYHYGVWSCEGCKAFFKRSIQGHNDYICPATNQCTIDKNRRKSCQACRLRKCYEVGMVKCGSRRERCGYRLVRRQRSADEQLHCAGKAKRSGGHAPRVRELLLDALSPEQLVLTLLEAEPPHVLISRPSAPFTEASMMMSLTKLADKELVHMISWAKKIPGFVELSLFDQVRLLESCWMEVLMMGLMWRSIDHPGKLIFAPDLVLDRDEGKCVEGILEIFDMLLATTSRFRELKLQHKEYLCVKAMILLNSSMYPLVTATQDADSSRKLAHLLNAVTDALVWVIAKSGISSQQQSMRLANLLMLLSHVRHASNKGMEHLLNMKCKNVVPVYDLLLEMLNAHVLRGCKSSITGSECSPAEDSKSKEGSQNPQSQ

Compound | Myelination: MBP [1, 4] | Myelination: OLs [1, 4] | Myelination: MBP [1, 5] | Myelination: OLs [1, 5] | number of MOG+ OLs (primary OPCs/OLs) | β/α Ratio (ERβ) | RBA ERβ (ERβ) [%] | CC1+ mature OL numbers, corpus callosum [1] | MBP+ staining, corpus callosum [1] | uterus to body weight ratio [2] | MBP staining intensity, thoracic spinal cord ventral column [3]
C[C@]12CC[C@@H]3c4ccc(O)cc4CC[C@H]3[C@@H]1CC[C@@H]2O [E2, 170 estradiol] | ○ | + | + | + | – | – | – | – | – | – | –
Oc1ccc(-n2nc3ccc(O)cc3c2Cl)cc1 [IndCl, chloroindazole] | + | + | – | – | significant increase | 107 | 32.1 | significant increase; also recorded: rescued the loss of CC1+ cells | increased MBP+ staining | neither IndCl nor its analogues significantly increased this ratio | maintained at near normal levels; also recorded: increased
Oc1ccc(-n2nc3ccc(O)cc3c2Cl)c(Cl)c1 [IndCl-o-Cl, 3-chloro-2-(2-chloro-4-hydroxyphenyl)-2H-indazol-5-ol] | + | + | – | – | – | 27.1 | 10.9 | significant increase | increased MBP+ staining | – | maintained at near normal levels; also recorded: increased
Cc1cc(O)ccc1-n1nc2ccc(O)cc2c1Cl [IndCl-o-Me, 3-chloro-2-(4-hydroxy-2-methylphenyl)-2H-indazol-5-ol] | + | + | – | – | – | 48.9 | 21.1 | significant increase | increased MBP+ staining | – | maintained at near normal levels; also recorded: increased
